Laboratory results taken from ChEMBL document CHEMBL2380201, “Synthesis, biological activity and resistance to proteolytic digestion of new cyclic dermorphin/deltorphin analogues” (Eur J Med Chem, 2013).
The source made the active and inactive calls. No cut-off for these calls is given here. Numbered stars: 1 amine (or outer) side, 2 acyl side, 3 side chain; on linkers, the order of the positions; unused ones are H or OH. Bridge positions count the residues as written; N and C are the ends. Square brackets hold non-standard residues; d marks the D form. Peptide text beside a SMILES is read from it. ξ: configuration not given here. Orn = NCCC[C@H](N)C(=O)O; Dap = NC[C@H](N)C(=O)O; ξOrn = NCCCC(N)C(=O)O; CO = O=C([*:1])[*:2]; ξDap = NCC(N)C(=O)O

Columns and labels:
Mus musculus [1] = test: Antinociceptive activity in BALB/c mouse assessed as increase in paw withdrawal latency at 1 mg/kg, ip measured 30 mins post dose by hot plate test; format: functional, organism-based; design: dose 1 mg/kg
Mus musculus [2] = test: Antinociceptive activity in BALB/c mouse assessed as increase in paw withdrawal latency at 0.1 mg/kg, sc measured 30 mins post dose by hot plate test; format: functional, organism-based; design: dose 0.1 mg/kg
chymotrypsin = test: Proteolytic stability of the compound in ammonium bicarbonate buffer assessed as hydrolysis at pH 8 at 10^-4 M after 1.5 hrs by ESI-MS spectrophotometry in presence of chymotrypsin; format: ADME; details: read-out: Drug degradation
Mus musculus [3] = test: Antinociceptive activity in BALB/c mouse assessed as increase in paw withdrawal latency at 1 mg/kg, iv measured 30 mins post dose by hot plate test; format: functional, organism-based; design: dose 1 mg/kg
[4] = Proteolytic stability of the compound in ammonium bicarbonate buffer assessed as hydrolysis at pH 8 at 10^-4 M after 12 hrs by ESI-MS spectrophotometry in presence […]; format: ADME; details: isolated protein, pH 8, 12 h, 100 µM
[5] = Proteolytic stability of the compound in ammonium bicarbonate buffer assessed as hydrolysis at pH 8 at 10^-4 M after 12 hrs by ESI-MS spectrophotometry in presence of chymotrypsin; format: ADME; details: isolated protein, pH 8, 12 h, 100 µM
Mus musculus [6] = test: Antinociceptive activity in BALB/c mouse at 1 mg/kg, iv measured 30 to 90 mins post dose by tail flick test relative to vehicle-treated control; format: functional
Mus musculus [7] = test: Antinociceptive activity in iv dosed BALB/c mouse measured 15 to 180 mins post dose by tail flick test; format: functional, organism-based
[8] = Proteolytic stability of the compound in ammonium bicarbonate buffer assessed as hydrolysis at pH 8 at 10^-4 M after 20 mins to 12 hrs by ESI-MS spectrophotometry in presence […]; format: ADME; details: isolated protein, pH 8, 100 µM
[9] = Proteolytic stability of the compound in ammonium bicarbonate buffer assessed as hydrolysis at pH 8 at 10^-4 M after 20 mins to 12 hrs by ESI-MS spectrophotometry in presence of chymotrypsin; format: ADME; details: isolated protein, pH 8, 100 µM
Mus musculus [10] = test: Antinociceptive activity in BALB/c mouse at 2 mg/kg, iv measured 15 to 180 mins post dose by tail flick test; format: functional, organism-based; design: dose 2 mg/kg
Mus musculus [11] = test: Antinociceptive activity in BALB/c mouse at 4 mg/kg, iv up to 120 mins by tail flick test; format: functional, organism-based; design: dose 4 mg/kg
Mus musculus [12] = test: Antinociceptive activity in BALB/c mouse at 0.5 mg/kg, iv measured 30 to 90 mins post dose by tail flick test relative to vehicle-treated control; format: functional
[13] = Proteolytic stability of the compound in ammonium bicarbonate buffer assessed as hydrolysis at pH 8 at 10^-4 M after 2.5 hrs by ESI-MS spectrophotometry in presence […]; format: ADME; details: isolated protein, pH 8, 2.5 h, 100 µM
[14] = Proteolytic stability of the compound in ammonium bicarbonate buffer assessed as intact cyclic fragment at pH 8 at 10^-4 M after 2.5 hrs by ESI-MS spectrophotometry in presence […]; format: ADME; details: isolated protein, pH 8, 2.5 h, 100 µM
Mus musculus [15] = test: Antinociceptive activity in BALB/c mouse at 2 mg/kg, iv measured 30 mins post dose by tail flick test relative to vehicle-treated control; format: functional

Row | SMILES | Activity (Mus musculus [1]) | Activity (Mus musculus [2]) | metabolised at 1.5 h, 100 µM (chymotrypsin) [%] | Activity (Mus musculus [3]) | Stability [4] | Stability [5] | also measured
1 | NC(=O)NCCNC(=O)[C@@H]1CNC(=O)NCCC[C@@H](NC(=O)[C@@H](N)Cc2ccc(O)cc2)C(=O)N[C@@H](Cc2ccccc2)C(=O)N1 | inactive | inactive | < 1 | inactive | Stable | Stable | 
2 | NC(=O)NCCNC(=O)[C@@H]1CCNC(=O)NCCCC[C@@H](NC(=O)[C@@H](N)Cc2ccc(O)cc2)C(=O)N[C@@H](Cc2ccccc2)C(=O)N1 | inactive | inactive | < 1 | Active |  |  | MPE (Mus musculus [6]): 54.7%; Activity (Mus musculus [7]): Dose-dependent effect; Stability [8]: Stable; Stability [9]: Stable; Activity (Mus musculus [10]): Active; Activity (Mus musculus [11]): Active; MPE (Mus musculus [12]): 41.8%
3 | NC(=O)[C@@H]1CCCCNC(=O)NCCC[C@H](NC(=O)[C@@H](N)Cc2ccc(O)cc2)C(=O)N[C@@H](Cc2ccccc2)C(=O)N1 (H-Y[Orn]FK-NH2; linker 2-4 via CO) |  |  |  |  |  |  | Stability [13]: Unstable
4 | NC(=O)[C@@H]1CNC(=O)NCCCC[C@H](NC(=O)[C@@H](N)Cc2ccc(O)cc2)C(=O)N[C@@H](Cc2ccccc2)C(=O)N1 (H-YKF[Dap]-NH2; linker 2-4 via CO) |  |  |  |  |  |  | Stability [14]: 98%
5 | NC(=O)C1CNC(=O)NCCCC(NC(=O)[C@@H](N)Cc2ccc(O)cc2)C(=O)N[C@@H](Cc2ccccc2)C(=O)N1 (some centres undefined) (H-Y[ξOrn]F[ξDap]-NH2; linker 2-4 via CO) |  |  |  |  |  |  | Stability [13]: Unstable
6 | NC(=O)NCCNC(=O)[C@@H]1CCCCNC(=O)NCCCC[C@@H](NC(=O)[C@@H](N)Cc2ccc(O)cc2)C(=O)N[C@@H](Cc2ccccc2)C(=O)N1 | inactive | inactive | < 1 | inactive | Stable | Stable | 
7 | NC(=O)NCCNC(=O)[C@@H]1CCNC(=O)NCCC[C@@H](NC(=O)[C@@H](N)Cc2ccc(O)cc2)C(=O)N[C@@H](Cc2ccccc2)C(=O)N1 | inactive | inactive | < 1 | inactive | Stable | Stable | 
8 | NCCNC(=O)[C@@H]1CNC(=O)NCCCC[C@@H](NC(=O)[C@@H](N)Cc2ccc(O)cc2)C(=O)N[C@@H](Cc2ccccc2)C(=O)N1 | inactive | inactive | < 1 | inactive | Stable | Stable | 
9 | NC(=O)NCCNC(=O)[C@@H]1CCCCNC(=O)NCCC[C@@H](NC(=O)[C@@H](N)Cc2ccc(O)cc2)C(=O)N[C@@H](Cc2ccccc2)C(=O)N1 | inactive | inactive | < 1 | inactive | Stable | Stable | 
10 | NC(=O)NCCNC(=O)[C@@H]1CCCNC(=O)NCCCC[C@@H](NC(=O)[C@@H](N)Cc2ccc(O)cc2)C(=O)N[C@@H](Cc2ccccc2)C(=O)N1 | inactive | inactive | < 1 | inactive | Stable | Stable | 
11 | CN1CC[C@]23c4c5ccc(O)c4O[C@H]2[C@@H](O)C=C[C@H]3[C@H]1C5 [MORPHINE] |  |  |  | inactive |  |  | Activity (Mus musculus [6]): inactive; MPE (Mus musculus [15]): 63.1%; Activity (Mus musculus [11]): Active; Activity (Mus musculus [12]): inactive
12 | CCNC(=O)[C@@H]1CCCNC(=O)NCCCC[C@@H](NC(=O)[C@@H](N)Cc2ccc(O)cc2)C(=O)N[C@@H](Cc2ccccc2)C(=O)N1 | inactive | inactive | < 1 | inactive | Stable | Stable | 
13 | NC(=O)[C@@H]1CCCCNC(=O)NC[C@H](NC(=O)[C@@H](N)Cc2ccc(O)cc2)C(=O)N[C@@H](Cc2ccccc2)C(=O)N1 (H-Y[Dap]FK-NH2; linker 2-4 via CO) |  |  |  |  |  |  | Stability [14]: 98%
14 | NC(=O)NCCNC(=O)[C@@H]1CCCNC(=O)NCCC[C@@H](NC(=O)[C@@H](N)Cc2ccc(O)cc2)C(=O)N[C@@H](Cc2ccccc2)C(=O)N1 | inactive | inactive | < 1 | inactive | Stable | Stable | 
15 | NC(=O)NCCNC(=O)[C@@H]1CNC(=O)NCCCC[C@@H](NC(=O)[C@@H](N)Cc2ccc(O)cc2)C(=O)N[C@@H](Cc2ccccc2)C(=O)N1 | inactive | inactive | < 1 | inactive | Stable | Stable | 
